Active and inactive are the calls of the source.
Tests used:
Format in all cases: functional, organism-based
Design in all cases: dose 4 mg/kg
Babesia caballi [1] = assay: Antiparasitic activity against Babesia caballi infected in horse assessed as reduction in parasite level at 4 mg/kg, im dosed 4 times at 72 hrs intervals administered 70 days postinfection and measured 5 days post last dose by nested PCR
Babesia caballi [2] = assay: Antiparasitic activity against Babesia caballi infected in horse assessed as reduction in parasite specific antibodies at 4 mg/kg, im dosed 4 times at 72 hrs intervals administered 70 days postinfection measured 56 days post dose by complement fixation assay
Babesia caballi [3] = assay: Antiparasitic activity against Babesia caballi infected in horse assessed as reduction in parasite specific antibodies at 4 mg/kg, im dosed 4 times at 72 hrs intervals administered 70 days postinfection measured 201 days post dose by C-ELISA
Babesia caballi [4] = assay: Antiparasitic activity against Babesia caballi receiving blood from 4 times 4 mg/kg, im compound treated donor horse infected with Babesia caballi assessed as reduction in parasite specific antibodies measured after 100 days post-parasite transmission by C-ELISA
Babesia caballi [5] = assay: Antiparasitic activity against Babesia caballi receiving blood from 4 times 4 mg/kg, im compound treated donor horse infected with Babesia caballi assessed as reduction in parasite level measured after 100 days post-parasite transmission by nested PCR
Babesia caballi [6] = assay: Antiparasitic activity against Babesia caballi infected in horse assessed as reduction in parasite specific antibodies at 4 mg/kg, im dosed 4 times at 72 hrs intervals administered 70 days postinfection measured 222 days post dose by immunoblot
Babesia caballi [7] = assay: Antiparasitic activity against Babesia caballi receiving ticks from 4 times 4 mg/kg, im compound treated donor horse infected with Babesia caballi assessed as reduction in parasite specific antibodies measured after 100 days post-parasite transmission by C-ELISA
Babesia caballi [8] = assay: Antiparasitic activity against Babesia caballi receiving ticks from 4 times 4 mg/kg, im compound treated donor horse infected with Babesia caballi assessed as reduction in parasite level measured after 100 days post-parasite transmission by nested PCR
Babesia caballi [9] = assay: Antiparasitic activity against Babesia caballi infected in horse assessed as reduction in parasite level at 4 mg/kg, im dosed 4 times at 72 hrs intervals administered 70 days postinfection and measured 5 days post last dose by quantitative PCR

Measured: Activity

O=C(Nc1cccc(C2=NCCN2)c1)Nc1cccc(C2=NCCN2)c1
active: Babesia caballi [1] | Babesia caballi [2] | Babesia caballi [3] | Babesia caballi [4] | Babesia caballi [5] | Babesia caballi [6] | Babesia caballi [7] | Babesia caballi [8] | Babesia caballi [9]
